Tests used:
[1] = Storage of acidic, concentrated permeate in a fridge; GAA content determined by HPLC; format: physicochemical; conditions: for GAA content: acidic and concentrated permeate stored in a fridge
Method: After fermentation and inactivation of the fermentation broth, the pH of the broth was adjusted to 1.5 using 75% w/w of H2SO4 at a temperature of 50° C. The biomass was removed by means of ultrafiltration and the temperature of the broth was kept constant at 50° C. The resulting permeate was concentrated at 80° C. and used for the crystallization step. The permeate fed to the crystallization was adjusted to pH 8 using 25% w/w of NH4OH. The formed crystals were separated by means of a suction filter and dried.
A part of the acidic and concentrated permeate was stored aside in a fridge over a period of ca. 2 weeks. The GAA content in said permeate was regularly determined by means of HPLC.
Description of the HPLC Method:
• 2.3 g ammonium dihydrogenphosphate (NH4H2PO4) and • 2.6 g di-ammonium hydrogenphosphate ((NH4)2HPO4) • dissolved in 2 L purified water
2.3 g ammonium dihydrogenphosphate (NH4H2PO4) and • 2.6 g di-ammonium hydrogenphosphate ((NH4)2HPO4) • dissolved in 1 L purified water and mixed with 1 L acetonitrile
The following gradient was used in the HPLC method: […]

[2] = aqueous medium; cited from earlier work

GAA content ([1]; 1 Apr. 2022): 120.9 g/kg
GAA content ([1]; 7 Apr. 2022): 118.5 g/kg
GAA content ([1]; 12 Apr. 2022): 119.9 g/kg
GAA content ([1]; 13 Apr. 2022): 119.3 g/kg
degradation of the GAA in the acidic and concentrated permeate ([1]; fridge, over the 2-week period, HPLC): no degradation
Structure (SMILES): N=C(N)NCC(=O)O [GAA, guanidinoacetic acid]
pKa [2]: approximately 2.9
pKb [2]: approximately 10.91

— patent publication US20260226001A1, “PROCESS FOR PREPARING AN N-GUANYLAMINO ACID” (Evonik Operations GmbH, priority 2023, published 2026)
